Values of other authors in patent US10292931B2, “Stable liquid pharmaceutical composition based on trazodone” (AZIENDE CHIMICHE RIUNITE ANGELINI FRANCESCO A.C.R.A.F. …, priority 2007, dated 2019).
Structures can show the parent of a compound that is named as a salt. Where two headings read alike, the source gives them in different places.

Key:
[1] = 1% (w/v) aqueous solution
[2] = room temperature

pH of aqueous solution [1]: approx. 3.90
solubility ([2]; 95% ethanol): 1.6 g/100 ml
solubility ([2]; benzene): practically insoluble
solubility ([2]; chloroform): 3.6 g/100 ml
solubility ([2]; ethyl ether): practically insoluble
solubility ([2]; methanol): 2.5 g/100 ml
solubility ([2]; octanol): less than 0.1 g/100 ml
solubility ([2]; olive oil): less than 0.1 g/100 ml
solubility ([2]; water): 1.8 g/100 ml
Structure (SMILES): O=c1n(CCCN2CCN(c3cccc(Cl)c3)CC2)nc2ccccn12 [trazodone hydrochloride]
